What was measured:
HCV = conditions: cited from earlier work
[1] = system: genotype 1b (Con-1) HCV replicon; assay: HCV Replicon Luciferase Assay (genotype 1b); type: cell-based; conditions: Hepatitis C virus, 72 h; genotype 1b replicon in Huh-7 cells, Renilla luciferase, 3 days incubation; read-out: EC50 1b (class)
Method: The cell lines used to evaluate compounds consist of a human hepatocyte derived cell line (Huh-7) that constitutively expresses a genotype 1b (Con-1) HCV replicon or a genotype 1b (Con-1) HCV replicon with an asparagine replacing the cysteine at amino acid 316, or a genotype 2a (JFH-1) replicon, containing a Renilla luciferase reporter gene. These cells were maintained in Dulbecco's modified Eagle medium (DMEM) containing 10% FBS, 100 U/mL penicillin/streptomycin and 1.0 mg/mL G418.
To evaluate compound efficacy, titrated compounds were transferred to sterile 384-well tissue culture treated plates, and the plates were seeded with HCV replicon cells (50 μL at a density of 2.4×10^3 cells/well) in DMEM containing 4% FBS (final DMSO concentration at 0.5%). After 3 days incubation at 37° C., cells were analyzed for Renilla Luciferase activity using the EnduRen substrate (Promega cat #E6485) according to the manufacturer's directions. Briefly, the EnduRen substrate was diluted in DMEM and then added to the plates to a final concentration of 7.5 μM. The plates were incubated for at least 1 h at 37° C. then read on a Viewlux Imager (PerkinElmer) using a luminescence program. The 50% effective concentration (EC50) was calculated using the four-parameter logistic formula noted above.
Compound EC50 data is expressed as A: <100 nM; B=100-1000 nM; C>1000 nM).

Structure (SMILES)	hepatic toxicity (HCV; extended dosing of the combination regimens)	HCV RNA levels in patients (HCV; patients, single agent transient, more robust with interferon and ribavirin)	EC50 [1]
CNC(=O)c1c(-c2ccc(F)cc2)oc2cc(N(CCO)S(C)(=O)=O)c(C3CC3)cc12 [HCV-796]	hepatic toxicity observed	reduce HCV RNA levels	–
CNC(=O)c1c(-c2ccc(F)cc2)oc2nc(CCC(F)(F)F)c(-c3cccc(C(=O)N[C@@H](C)C4CC4)c3)cc12 [Compound 20011]	–	–	< 100 nM
CNC(=O)c1c(-c2ccc(F)cc2)oc2nc(NCC(F)(F)F)c(-c3cccc(C(=O)NCC(C)(C)CO)c3)cc12 [Compound 30014]	–	–	< 100 nM
